In patent US8846951B2 (AbbVie Inc., priority 2009, dated 2014):
pEC50: −log10 of the molar value. Read-outs that look alike come from different tables or passages of the source.

Assays:
5HT2B receptors = target: T1, 5HT2B receptors (Homo sapiens, UniProt P41595); assay: Human 5-HT2B functional high throughput screening assay in CHO-K1 cells (calcium flux); type: cell-based; conditions: for pEC50: CHO-K1 cells, calcium flux
T1 construct: expressed in transfected cells; host or cells: CHO-K1 cells
T1 sequence (P41595 whole entry): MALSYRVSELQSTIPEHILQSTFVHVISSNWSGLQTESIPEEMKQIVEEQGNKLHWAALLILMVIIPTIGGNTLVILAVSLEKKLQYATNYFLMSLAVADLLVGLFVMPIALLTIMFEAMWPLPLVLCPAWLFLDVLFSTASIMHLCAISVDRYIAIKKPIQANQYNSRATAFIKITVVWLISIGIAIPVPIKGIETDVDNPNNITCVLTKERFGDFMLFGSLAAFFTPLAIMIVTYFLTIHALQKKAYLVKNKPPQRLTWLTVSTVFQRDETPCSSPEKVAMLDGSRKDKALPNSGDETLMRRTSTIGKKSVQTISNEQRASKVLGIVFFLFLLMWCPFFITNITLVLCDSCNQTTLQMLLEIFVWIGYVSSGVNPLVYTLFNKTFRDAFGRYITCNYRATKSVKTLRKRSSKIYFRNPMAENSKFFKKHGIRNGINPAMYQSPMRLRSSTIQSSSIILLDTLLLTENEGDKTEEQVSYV
Outline: (§1)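 Agonism is measured as intracellular calcium increase in receptor-overexpressing CHO-K1 cells, read by FLIPR at 25 °C. Responses are expressed relative to serotonin, with EC50 and Emax derived from a 4-parameter logistic curve over 6 concentrations starting at 10 μM.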

5HT2C receptors = target: T2, 5HT2C receptors (Homo sapiens, UniProt P28335); assay: Human 5-HT2C functional high throughput screening assay in CHO-K1 cells (calcium flux); type: cell-based; design: expressed in transfected cells; host or cells: CHO-K1 cells; conditions: for pEC50: CHO-K1 cells, calcium flux; for Emax: CHO-K1, 5-HT2C, maximum functional response as percentage relative to the effect of serotonin
T2 sequence (P28335 33-458): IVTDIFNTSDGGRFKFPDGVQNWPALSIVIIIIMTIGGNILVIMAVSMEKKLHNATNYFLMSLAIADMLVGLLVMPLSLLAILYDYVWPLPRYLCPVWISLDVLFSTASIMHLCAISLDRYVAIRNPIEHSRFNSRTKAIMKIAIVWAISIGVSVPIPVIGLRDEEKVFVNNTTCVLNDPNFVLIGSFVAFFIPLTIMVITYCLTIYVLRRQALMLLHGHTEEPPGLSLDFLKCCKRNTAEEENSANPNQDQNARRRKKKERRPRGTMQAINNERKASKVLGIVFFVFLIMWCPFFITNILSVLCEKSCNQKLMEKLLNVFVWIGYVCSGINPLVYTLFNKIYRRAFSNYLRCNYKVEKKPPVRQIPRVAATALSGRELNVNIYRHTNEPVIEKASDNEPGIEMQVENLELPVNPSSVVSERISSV
Outline: as §1

[1] = 5-HT2B agonist activity, read-out: EC50
[2] = 5-HT2B, maximum functional response as percentage relative to the effect of serotonin
[3] = 5-HT2C agonist activity, read-out: EC50

pEC50 (5HT2B receptors; [1]) | Emax (5HT2B receptors; [2]) | pEC50 (5HT2C receptors; [3]) | Emax (5HT2C receptors; read-out: Emax) [%] | Emax (5HT2B receptors; CHO-K1, 5-HT2B, maximum functional response as percentage relative to the effect of serotonin, read-out: Emax) [%] | SMILES | Emax (5HT2C receptors) [%] | pEC50 (5HT2B receptors; EC50, 5-HT2B agonist activity) | pEC50 (5HT2C receptors; EC50, 5-HT2C agonist activity) | Emax (5HT2B receptors; CHO-K1) [%]
< 5.00 | inactive | 7.40 | 110 | – | CC(=O)c1cccc(-c2ccc3c(c2)C(=O)N(C)C[C@@H]2CN(C)C[C@@H]32)c1 (relative stereo) [Example 191, Trans-8-(3-acetylphenyl)-2,5-dimethyl-1,2,3,3a,4,5-hexahydrobenzo[e]pyrrolo[3,4-c]azepin-6(10bH)-one] | – | – | – | –
< 5.00 | inactive | 8.10 | 120 | – | CN1C[C@H]2CN(C)C(=O)c3cc(-c4cccc(CCO)c4)ccc3[C@@H]2C1 (relative stereo) [Example 192, Trans-8-(3-(2-hydroxyethyl)phenyl)-2,5-dimethyl-1,2,3,3a,4,5-hexahydrobenzo[e]pyrrolo[3,4-c]azepin-6(10bH)-one] | – | – | – | –
< 5.00 | inactive | 7.70 | > 120 | – | CC(O)c1cccc(-c2ccc3c(c2)C(=O)N(C)C[C@@H]2CN(C)C[C@@H]32)c1 (relative stereo) [Example 193, Trans-8-(3-(1-hydroxyethyl)phenyl)-2,5-dimethyl-1,2,3,3a,4,5-hexahydrobenzo[e]pyrrolo[3,4-c]azepin-6(10bH)-one] | – | – | – | –
< 5.00 | inactive | 7.70 | > 120 | – | CN1C[C@H]2CN(C)C(=O)c3cc(-c4cccc(C(C)(C)O)c4)ccc3[C@@H]2C1 (relative stereo) [Example 194, Trans-8-(3-(2-hydroxypropan-2-yl)phenyl)-2,5-dimethyl-1,2,3,3a,4,5-hexahydrobenzo[e]pyrrolo[3,4-c]azepin-6(10bH)-one] | – | – | – | –
< 5.00 | inactive | 8.00 | > 120 | – | CN1C[C@H]2CNC(=O)c3cc(-c4ccc5nonc5c4)ccc3[C@@H]2C1 (relative stereo) [Example 195, Trans-8-(benzo[c][1,2,5]oxadiazol-5-yl)-2-methyl-1,2,3,3a,4,5-hexahydrobenzo[e]pyrrolo[3,4-c]azepin-6(10bH)-one] | – | – | – | –
< 5.00 | inactive | 8.05 | > 120 | – | CN1C[C@H]2CNC(=O)c3cc(-c4cccc(C=O)c4)ccc3[C@@H]2C1 (relative stereo) [Example 198, Trans-3-(2-methyl-6-oxo-1,2,3,3a,4,5,6,10b-octahydrobenzo[e]pyrrolo[3,4-c]azepin-8-yl)benzaldehyde] | – | – | – | –
< 5.00 | inactive | 8.22 | > 120 | – | Cc1ccc(-c2ccc3c(c2)C(=O)NC[C@@H]2CN(C)C[C@@H]32)o1 (relative stereo) [Example 203, Trans-2-methyl-8-(5-methylfuran-2-yl)-1,2,3,3a,4,5-hexahydrobenzo[e]pyrrolo[3,4-c]azepin-6(10bH)-one] | – | – | – | –
– | – | – | – | – | Brc1ccc2c(c1)[C@H]1CNC[C@@H]1CCO2 (relative stereo) [Example 214, Trans-9-bromo-2,3,3a,4,5,10b-hexahydro-1H-[1]benzoxepino[4,5-c]pyrrole] | > 120 | 7.70 | 8.70 | 50
5.30 | – | 6.22 | > 120 | 15 | c1ccc(-c2ccc3c(c2)[C@H]2CNC[C@@H]2CCO3)cc1 (relative stereo) [Example 215, Trans-9-phenyl-2,3,3a,4,5,10b-hexahydro-1H-[1]benzoxepino[4,5-c]pyrrole] | – | – | – | –
< 5.00 | inactive | 7.40 | > 120 | – | O=C1NC[C@@H]2CN(Cc3ccccc3)C[C@H]2c2ccc(-c3ccc(F)cc3)cc21 (relative stereo) [Example 218, Trans-2-benzyl-8-(4-fluorophenyl)-1,2,3,3a,4,5-hexahydrobenzo[e]pyrrolo[3,4-c]azepin-6(10bH)-one] | – | – | – | –
< 5.00 | inactive | – | > 120 | – | O=C1NC[C@@H]2CNC[C@H]2c2ccc(-c3ccc(F)cc3)cc21 (relative stereo) [Example 219, Trans-8-(4-fluorophenyl)-1,2,3,3a,4,5-hexahydrobenzo[e]pyrrolo[3,4-c]azepin-6(10bH)-one] | – | – | – | –
< 5.00 | inactive | 6.40 | > 120 | – | O=C1C[C@@H]2CN(Cc3ccccc3)C[C@H]2c2ccccc2N1 (relative stereo) [Example 222, Trans-2-benzyl-1,2,3,3a,4,10b-hexahydrobenzo[b]pyrrolo[3,4-d]azepin-5(6H)-one] | – | – | – | –
< 5.00 | inactive | 5.30 | 60 | – | O=C1Cc2ccccc2[C@@H]2CN(Cc3ccccc3)C[C@H]2N1 (relative stereo) [Example 223, Trans-2-benzyl-1,2,3,3a,4,10b-hexahydrobenzo[d]pyrrolo[3,4-b]azepin-5(6H)-one] | – | – | – | –

SMILES | pEC50 (5HT2B receptors; [1]) | Emax (5HT2B receptors; [2]) | pEC50 (5HT2C receptors; [3]) | Emax (5HT2C receptors; read-out: Emax) [%] | Emax (5HT2B receptors; CHO-K1, 5-HT2B, maximum functional response as percentage relative to the effect of serotonin, read-out: Emax) [%] | Emax (5HT2C receptors) [%] | pEC50 (5HT2B receptors; EC50, 5-HT2B agonist activity) | pEC50 (5HT2C receptors; EC50, 5-HT2C agonist activity) | Emax (5HT2B receptors; CHO-K1) [%]
CC(C)c1ccc2c(c1)C(=O)NC[C@@H]1CN(C)C[C@@H]21 (relative stereo) [Example 196, Trans-8-isopropyl-2-methyl-1,2,3,3a,4,5-hexahydrobenzo[e]pyrrolo[3,4-c]azepin-6(10bH)-one] | < 5.00 | inactive | 6.30 | – | – | 30 | – | – | –
CC(C)=Cc1ccc2c(c1)C(=O)NC[C@@H]1CN(C)C[C@@H]21 (relative stereo) [Example 197, Trans-2-methyl-8-(2-methylprop-1-enyl)-1,2,3,3a,4,5-hexahydrobenzo[e]pyrrolo[3,4-c]azepin-6(10bH)-one] | – | inactive | – | – | – | > 120 | < 5.00 | 8.52 | –
CN1C[C@H]2CNC(=O)c3cc(C4=CCCC4)ccc3[C@@H]2C1 (relative stereo) [Example 201, Trans-8-cyclopentenyl-2-methyl-1,2,3,3a,4,5-hexahydrobenzo[e]pyrrolo[3,4-c]azepin-6(10bH)-one] | – | inactive | – | – | – | 120 | < 5.00 | 7.00 | –
C=C(c1ccc2c(c1)C(=O)NC[C@@H]1CN(C)C[C@@H]21)C(F)(F)F (relative stereo) [Example 202, Trans-2-methyl-8-(3,3,3-trifluoroprop-1-en-2-yl)-1,2,3,3a,4,5-hexahydrobenzo[e]pyrrolo[3,4-c]azepin-6(10bH)-one] | < 5.00 | inactive | 6.40 | – | – | 80 | – | – | –
CN1C[C@H]2CNC(=O)c3cc(C4CCCCC4)ccc3[C@@H]2C1 (relative stereo) [Example 204, Trans-8-cyclohexyl-2-methyl-1,2,3,3a,4,5-hexahydrobenzo[e]pyrrolo[3,4-c]azepin-6(10bH)-one] | < 5.00 | inactive | 6.30 | – | – | 80 | – | – | –
CN1C[C@H]2CNC(=O)c3cc(C4CCCC4)ccc3[C@@H]2C1 (relative stereo) [Example 205, Trans-8-cyclopentyl-2-methyl-1,2,3,3a,4,5-hexahydrobenzo[e]pyrrolo[3,4-c]azepin-6(10bH)-one] | < 5.00 | inactive | 6.52 | – | – | 90 | – | – | –
CN1C[C@H]2CNC(=O)c3cc(OCc4ccccc4)ccc3[C@@H]2C1 (relative stereo) [Example 216, Trans-8-(benzyloxy)-2-methyl-1,2,3,3a,4,5-hexahydrobenzo[c]pyrrolo[3,4-e]azepin-6(10bH)-one] | – | inactive | – | – | – | > 120 | < 5.00 | 8.70 | –
